Ends that are not written are not given here.
Tests used:
[1] = test system: 100% CO bound hemoglobin (HbCO); experiment: CO scavenging from CO-bound hemoglobin, UV-visible spectra kinetics; type: biochemical; conditions: 100% HbCO mixed with reduced heme-peptide; spectral changes during reaction
[2] = CO binding of dithionite-reduced heme molecule by absorbance spectra; conditions: anaerobic, reduced with stoichiometric dithionite, CO saturated phosphate buffered saline added
From the text: A heme molecule bound to two peptide chains Ac-GCHGGR (SEQ ID NO: 2) in a “sandwich” (see FIG. 1), when prepared in anaerobic conditions, changes absorbance spectra (measured by Cary Spec device) with the introduction of stoichiometric amounts of dithionite.

Substance | kobs for CO scavenging, k1 [1] [s⁻¹] | kobs for CO scavenging, k2 [1] [s⁻¹] | CO binding ability (change of absorbance spectra) [2]
QHGCGGCHG (N-acetyl; heme bound via two thioether bonds) | 0.1828 | 0.00968 | 
RCHGGR: heme group bound to two non-contiguous peptides each of sequence RCHGGR (not fully specified (N-terminus); also: heme group bound to two non-contiguous peptide copies) | 0.02576 | 0.01241 | 
Ac-GCHGGR: heme molecule bound to two peptide chains Ac-GCHGGR in a sandwich configuration (also: heme molecule bound to two peptide chains in a sandwich configuration) |  |  | indicating its CO binding ability
microperoxidase-11 [MP11, reference compound] | 0.0215 |  | 

From patent US20210380666A1, “SYNTHETIC HEME-CONTAINING MOLECULES AND THEIR USE” (priority 2017, published 2021)
